Reference: the CheMixHub ionic liquid set

Test: xn = mol fraction of the nth substance listed
Conditions: 101 kPa, frequency 0.001 MHz

CCCCCCCCCCCCCCn1cc[n+](C)c1.[Br-] + CC[N+](CC)(CC)CC.[Br-] + O
electrical conductivity [S/m]
Conditions | 298.15 K | 308.15 K | 318.15 K
x1 = 4.74e-06, x2 = 0 | 0.00249 | 0.00401 | 0.00409
x1 = 4.74e-06, x2 = 1.802e-05 | 0.0133 | 0.0165 | 0.0198
x1 = 4.74e-06, x2 = 3.604e-05 | 0.0213 | 0.0264 | 0.0318
x1 = 4.74e-06, x2 = 9.009e-05 | 0.0427 | 0.053 | 0.063
x1 = 9.35e-06, x2 = 0 | 0.00459 | 0.00671 | 0.00708
x1 = 9.35e-06, x2 = 1.802e-05 | 0.0152 | 0.0187 | 0.0223
x1 = 9.36e-06, x2 = 3.604e-05 | 0.023 | 0.0283 | 0.0345
x1 = 9.36e-06, x2 = 9.009e-05 | 0.0444 | 0.0542 | 0.0648
x1 = 1.386e-05, x2 = 0 | 0.0065 | 0.0093 | 0.0101
x1 = 1.386e-05, x2 = 1.802e-05 | 0.017 | 0.0209 | 0.025
x1 = 1.386e-05, x2 = 3.604e-05 | 0.0249 | 0.0306 | 0.0365
x1 = 1.387e-05, x2 = 9.009e-05 | 0.0459 | 0.056 | 0.0665
x1 = 1.825e-05, x2 = 0 | 0.00834 | 0.011 | 0.0127
x1 = 1.826e-05, x2 = 1.802e-05 | 0.0185 | 0.0231 | 0.0271
x1 = 1.826e-05, x2 = 3.604e-05 | 0.0264 | 0.0325 | 0.0389
x1 = 1.827e-05, x2 = 9.009e-05 | 0.0472 | 0.058 | 0.0681
x1 = 2.252e-05, x2 = 0 | 0.0101 | 0.0135 | 0.0154
x1 = 2.253e-05, x2 = 1.802e-05 | 0.0201 | 0.0251 | 0.0294
x1 = 2.253e-05, x2 = 3.604e-05 | 0.0281 | 0.0343 | 0.0416
x1 = 2.255e-05, x2 = 9.009e-05 | 0.0479 | 0.0594 | 0.0705
x1 = 2.669e-05, x2 = 0 | 0.0119 | 0.0154 | 0.0182
x1 = 2.669e-05, x2 = 1.802e-05 | 0.0216 | 0.0268 | 0.0318
x1 = 2.67e-05, x2 = 3.604e-05 | 0.0295 | 0.0364 | 0.0432
x1 = 2.671e-05, x2 = 9.009e-05 | 0.049 | 0.0611 | 0.0723
x1 = 3.076e-05, x2 = 0 | 0.0136 | 0.0173 | 0.0206
x1 = 3.077e-05, x2 = 1.802e-05 | 0.0232 | 0.0286 | 0.0341
x1 = 3.077e-05, x2 = 3.604e-05 | 0.0307 | 0.0381 | 0.0451
x1 = 3.079e-05, x2 = 9.009e-05 | 0.0493 | 0.0618 | 0.0738
x1 = 3.474e-05, x2 = 0 | 0.0152 | 0.0199 | 0.0232
x1 = 3.475e-05, x2 = 1.802e-05 | 0.0248 | 0.0305 | 0.0362
x1 = 3.475e-05, x2 = 3.604e-05 | 0.0315 | 0.0399 | 0.0472
x1 = 3.477e-05, x2 = 9.009e-05 | 0.0495 | 0.0619 | 0.0748
x1 = 3.862e-05, x2 = 0 | 0.0167 | 0.0218 | 0.0253
x1 = 3.862e-05, x2 = 1.802e-05 | 0.0261 | 0.0324 | 0.0384
x1 = 3.863e-05, x2 = 3.604e-05 | 0.0318 | 0.0405 | 0.0492
x1 = 3.865e-05, x2 = 9.009e-05 | 0.0494 | 0.0621 | 0.0752
x1 = 4.24e-05, x2 = 0 | 0.0183 | 0.0238 | 0.028
x1 = 4.241e-05, x2 = 1.802e-05 | 0.0265 | 0.0333 | 0.0404
x1 = 4.242e-05, x2 = 3.604e-05 | 0.0322 | 0.0409 | 0.0511
x1 = 4.244e-05, x2 = 9.009e-05 | 0.0497 | 0.0622 | 0.0753
x1 = 4.613e-05, x2 = 0 | 0.0192 | 0.0252 | 0.0303
x1 = 4.614e-05, x2 = 1.802e-05 | 0.0271 | 0.034 | 0.042
x1 = 4.615e-05, x2 = 3.604e-05 | 0.0326 | 0.0414 | 0.0518
x1 = 4.617e-05, x2 = 9.009e-05 | 0.0499 | 0.0623 | 0.0756
x1 = 4.973e-05, x2 = 0 | 0.0199 | 0.0265 | 0.0322
x1 = 4.974e-05, x2 = 1.802e-05 | 0.0274 | 0.0345 | 0.0432
x1 = 4.975e-05, x2 = 3.604e-05 | 0.0329 | 0.0419 | 0.0525
x1 = 4.978e-05, x2 = 9.009e-05 | 0.05 | 0.0627 | 0.0758
x1 = 5.334e-05, x2 = 0 | 0.0204 | 0.0273 | 0.0335
x1 = 5.335e-05, x2 = 1.802e-05 | 0.0278 | 0.035 | 0.0441
x1 = 5.336e-05, x2 = 3.604e-05 | 0.0333 | 0.0423 | 0.0531
x1 = 5.339e-05, x2 = 9.009e-05 | 0.0501 | 0.063 | 0.0761
x1 = 5.676e-05, x2 = 0 | 0.0209 | 0.0282 | 0.0345
x1 = 5.677e-05, x2 = 1.802e-05 | 0.0283 | 0.0354 | 0.0449
x1 = 5.678e-05, x2 = 3.604e-05 | 0.0336 | 0.0428 | 0.0534
x1 = 5.681e-05, x2 = 9.009e-05 | 0.0503 | 0.063 | 0.0763
x1 = 6e-05, x2 = 0 | 0.0213 | 0.0288 | 0.0356
x1 = 6.001e-05, x2 = 1.802e-05 | 0.0286 | 0.0359 | 0.0455
x1 = 6.003e-05, x2 = 3.604e-05 | 0.0338 | 0.0432 | 0.0541
x1 = 6.006e-05, x2 = 9.009e-05 | 0.0505 | 0.0633 | 0.0768
x1 = 6.343e-05, x2 = 0 | 0.0217 | 0.0294 | 0.0365
x1 = 6.344e-05, x2 = 1.802e-05 | 0.0289 | 0.0364 | 0.0461
x1 = 6.345e-05, x2 = 3.604e-05 | 0.0341 | 0.0435 | 0.0542
x1 = 6.349e-05, x2 = 9.009e-05 | 0.0507 | 0.0636 | 0.0773
x1 = 6.667e-05, x2 = 0 | 0.0221 | 0.03 | 0.0372
x1 = 6.668e-05, x2 = 1.802e-05 | 0.0293 | 0.0368 | 0.0467
x1 = 6.67e-05, x2 = 3.604e-05 | 0.0344 | 0.0439 | 0.0548
x1 = 6.673e-05, x2 = 9.009e-05 | 0.0508 | 0.0637 | 0.0777
x1 = 6.973e-05, x2 = 0 | 0.0225 | 0.0305 | 0.0377
x1 = 6.975e-05, x2 = 1.802e-05 | 0.0296 | 0.0373 | 0.0473
x1 = 6.976e-05, x2 = 3.604e-05 | 0.0346 | 0.0442 | 0.0552
x1 = 6.98e-05, x2 = 9.009e-05 | 0.0511 | 0.0641 | 0.0781
x1 = 7.28e-05, x2 = 0 | 0.0229 | 0.0311 | 0.0383
x1 = 7.281e-05, x2 = 1.802e-05 | 0.0299 | 0.0375 | 0.0478
x1 = 7.282e-05, x2 = 3.604e-05 | 0.0349 | 0.0445 | 0.0555
x1 = 7.287e-05, x2 = 9.009e-05 | 0.0512 | 0.0646 | 0.0785
x1 = 7.586e-05, x2 = 0 | 0.0233 | 0.0316 | 0.0389
x1 = 7.587e-05, x2 = 1.802e-05 | 0.0302 | 0.0382 | 0.0482
x1 = 7.589e-05, x2 = 3.604e-05 | 0.0351 | 0.0453 | 0.0561
x1 = 7.593e-05, x2 = 9.009e-05 | 0.0516 | 0.065 | 0.0786
x1 = 7.892e-05, x2 = 0 | 0.0236 | 0.0321 | 0.0396
x1 = 7.894e-05, x2 = 1.802e-05 | 0.0304 | 0.0389 | 0.0485
x1 = 7.895e-05, x2 = 3.604e-05 | 0.0353 | 0.0455 | 0.0568
x1 = 7.9e-05, x2 = 9.008e-05 | 0.0519 | 0.0654 | 0.0789
x1 = 8.18e-05, x2 = 0 | 0.024 | 0.0326 | 0.0408
x1 = 8.182e-05, x2 = 1.802e-05 | 0.0307 | 0.0391 | 0.0492
x1 = 8.184e-05, x2 = 3.604e-05 | 0.0356 | 0.0458 | 0.0571
x1 = 8.188e-05, x2 = 9.008e-05 | 0.0522 | 0.0658 | 0.0792
x1 = 8.451e-05, x2 = 0 | 0.0243 | 0.0329 | 0.0414
x1 = 8.452e-05, x2 = 1.802e-05 | 0.0308 | 0.0395 | 0.0496
x1 = 8.454e-05, x2 = 3.604e-05 | 0.0358 | 0.0462 | 0.0573
x1 = 8.459e-05, x2 = 9.008e-05 | 0.0524 | 0.066 | 0.0796
x1 = 8.739e-05, x2 = 0 | 0.0246 | 0.0333 | 0.0418
x1 = 8.741e-05, x2 = 1.802e-05 | 0.0312 | 0.0399 | 0.0502
x1 = 8.742e-05, x2 = 3.604e-05 | 0.036 | 0.0464 | 0.058
x1 = 8.747e-05, x2 = 9.008e-05 | 0.0526 | 0.0665 | 0.0801
